Assay [1] in a line: Enzymatic activity of protein tyrosine phosphatase 1B in the presence (10 uM) was measured using para-nitrophenylphosphate (pNPP) as the substrate; active.
Assay [2] is described as follows: Inhibitory activity against Protein-tyrosine phosphatase activity; active.
A short description of assay [3]: Enzymatic activity of protein tyrosine phosphatase 1B in the presence (10 uM) was measured using para-nitrophenylphosphate (pNPP) as the substrate in the presence of TCEP (1 mM); inhibited.
A short description of assay [4]: Enzymatic activity of protein tyrosine phosphatase 1B in the presence (10 uM) was measured using para-nitrophenylphosphate (pNPP) as the substrate in the presence of TCEP (1 mM) and catalase (25 ug/mL); activity not restored.
Assay [5] can be described thus: Enzymatic activity of protein tyrosine phosphatase 1B in the presence (10 uM) was measured using para-nitrophenylphosphate (pNPP) as the substrate in the presence of […] (1 mM); inhibited.
Assay [6] can be described thus: Enzymatic activity of protein tyrosine phosphatase 1B in the presence (10 uM) was measured using para-nitrophenylphosphate (pNPP) as the substrate in the presence of […] (1 mM) and catalase (25 ug/mL); abolished the inhibitory effect.

Active and inactive are the calls of the source. The rule behind the calls is not given here.

Regarding `O=C(O)CCP(CCC(=O)O)CCC(=O)O`, the result in assay [1] was Active.

Regarding `OO`, the result in assay [2] was Active.

For `CC1(C)C=C2C(=NN(c3ccccc3)C(N)=C2C#N)CO1`, the result in assay [1] was Active.

On to `CC1(C)C=C2C(=NN(c3ccccc3)C(N)=C2C#N)CO1.O=C(O)CCP(CCC(=O)O)CCC(=O)O`, for which the Activity result in assay [3] and in assay [4] was “activity not restored” each time.

Turning to `O=C1CC(=O)N(c2ccccc2)O1`, in assay [2], the outcome was Active.

With `OC(CS)C(O)CS` (centres undefined), the result in assay [1] was Active.

Take `CC1(C)C=C2C(=NN(c3ccccc3)C(N)=C2C#N)CO1.OC(CS)C(O)CS`: the Activity result in assay [5] and in assay [6] was “abolished the inhibitory effect” each time.

These data come from ChEMBL document CHEMBL1137949, “Mechanism of action of pyridazine analogues on protein tyrosine phosphatase 1B (PTP1B)” (Bioorg Med Chem Lett, 2004).
